Measurements taken from patent publication US20250361214A1, “TRIAZINE LIPIDS, LIPID SYNTHESIS, AND METHODS FOR INHIBITING CANONICAL NFKB TRANSCRIPTIONAL ACTIVITY” (University of Kentucky Research Foundation, priority 2022, published 2025).
Like-named read-outs stand apart in the source and are kept apart here.

Tests used:
[1] = tested on: BALB/c mice; assay: Anti-hAAT antibody titers and IgG subclass ratios; format: in vivo, mouse; details: 25 μg hAAT protein administered with 1 mM lipid, day 14
Protocol: To assess the presence of antibodies toward hAAT, 50 μL of hAAT (OriGene #RG202082) was plated at 2 μg/mL in carbonate buffer, pH 9.7, on a 96 well high binding plate (Greiner #82050-720) and incubated overnight at 4° C. The next day, the plates were washed with PBS containing 0.1% Tween-20 (PBS-T) and blocked for 1 hour with PBS-C at 37° C. After blocking, serum samples were plated at dilutions ranging from 1:100 to 1:1,000,000 and incubated at 37° C. for 2 hours. Secondary antibody (goat anti-mouse IgG HRP; Invitrogen #16066) diluted 1:2000 was applied for 30 min at 37° C., followed by a 30 min. incubation with tetramethylbenzidine (Rockland). Absorbance at 450 nm was recorded using a BioTek Synergy H1 microplate reader. Reciprocal endpoint titers were determined by plotting A450 values versus known dilutions, calculating the slope of that line, and dividing the slope by two times the average of the blank (no serum) wells.
Anti-hAAT IgG subclass ratios were assessed as described above, using a single 1:100 sample dilution and the following detection antibodies: goat anti-mouse IgG1-HRP (Abcam ab98693) at 1:10,000, IgG2a-HRP (Abcam ab98698) at 1:5000, IgG2b-HRP (Abcam ab98703) at 1:10,000 and IgG3 (Jackson 115-035-209) at 1:5000. Subclass ratios were calculated by dividing the absorbance of each subclass by that of IgG1 for each individual mouse.

[2] = tested on: bone marrow derived macrophages; assay: in vitro; format: cell-based
Protocol: Cell Culture of Bone Marrow-Derived Macrophages. […] After 7 days, the cells were transferred to tissue culture 96 well plates (Corning) at a density of 100,000 in 20 μL of medium and allowed to settle overnight for subsequent assays.
Lactate Dehydrogenase Release (LDH) Toxicity Assay. For determination of cytotoxicity, mature bone marrow-derived macrophages (BMDM) were treated with 20 μL of the lipids (concentrations denoted in figure legend) diluted in 20 mM HEPES buffer, with HEPES buffer as negative control and 10% Triton X-100 as positive control. After 24 hours, the 96 well plates were centrifuged at 200×g for 5 minutes to remove debris and 100 μL of media was transferred to an untreated flat-bottom 96 well plate. Next, 100 μL of LDH reaction reagent purchased from Cayman Chemical (Ann Arbor, MI) was added to each and allowed to sit for 30 minutes at 37° C. Absorbance at 490 and 680 nm were measured using a BioTek Synergy H1 plate reader and the data were processed using Microsoft Excel. Mean values from triplicates are shown for one of two independent experiments.

[3] = Size and charge determination of nanoparticles (Zetasizer Nano ZS), Example 1; format: physicochemical
Source text: Size and Charge Determination.

[4] = Differential scanning calorimetry, transition temperature (Tm) of lipids; format: physicochemical; details: liposomes of pure lipid, 10 mM in 20 mM HEPES, DSC
Protocol: Differential Scanning calorimetery. The transition temperature (Tm) of the lipids was determined using a multicell differential scanning calorimeter (TA Instruments). Liposomes were made with triazine lipids at a concentration of 10 mM in 20 mM HEPES buffer. These were heated to 60° C. and sonicated until the solution was translucent. For Tm determination, 250 μL of the liposome solution was transferred into reusable hastelloy ampoules while 250 μL of the HEPES solution was transferred to the third ampoule, leaving the reference ampoule empty. […] Data was collected over a range of 10-110° C. at a rate of 2° C. min-1 in a heat-cool-heat cycle. After the run was complete, the CpCalc 2.1 software package was used to convert the raw data into a molar heat capacity and the data from the second heating cycle were processed using Microsoft Excel.

[5] = Nanoparticle pKa via TNS fluorescence; format: physicochemical; details: liposomes, pH 2.5 to 12
Protocol: Determination of Nanoparticle pKa via TNS Fluorescence. […] The solutions were mixed by pipetting and incubated at room temperature for 10 minutes, before being analysed for fluorescence intensity using a 321 nm excitation and 445 nm emission wavelengths.

[6] = tested on: canonical NFKB; assay: THP-1-Blue NFKB reporter (SEAP) assay; format: cell-based, human; details: THP-1-Blue cells stimulated with TNFα, 24 h lipid treatment; read-out: IC50, canonical NFKB inhibition
[7] = liposomes, lipid:DOPE mixtures, lipoplexes, immunization liposomes (Table 2)
[8] = nanoparticles of pure lipid (Table 1)
[9] = nanoparticles of pure lipid, 1 mM, 25° C. (Table 1)
[10] = zeta potential, nanoparticles of pure lipid (Table 1)
[11] = unstable nanoparticles of lipids 11 and 12, text

IC50 [2] [µM] | Tm [4] [°C] | PDI [3, 8] | Size [3, 9] | Charge [3, 10] [mV] | Structure (SMILES) | also measured
1100 | < 10 | 0.24 ± 0.02 | 124 ± 2 nm | −63 ± 4 | CCCCCCCCCCCCN(CCCCCCCCCCCC)c1nc(NCCC(=O)O)nc(NCCC(=O)O)n1 [Lipid 1] | –
679 | < 10 | 0.40 ± 0.00 | 87 ± 2 nm | −73 ± 6 | CCCCCCCCCCCCN(CCCCCCCCCCCC)c1nc(NCCS)nc(NCCC(=O)O)n1 [Lipid 5] | –
988 | 40 | 0.27 ± 0.01 | 93 ± 2 nm | −71 ± 5 | CCCCCCCCCCCCCCCCCCN(CCCCCCCCCCCCCCCCCC)c1nc(NCCS)nc(NCCC(=O)O)n1 [Lipid 6] | –
277 | < 10 | Unstable Unstable | Unstable Unstable | 42 ± 5 | CCCCCCCCCCCCN(CCCCCCCCCCCC)c1nc(NCCCN)nc(NCCC(=O)O)n1 [Lipid 11] | PDI [3, 11]: 0.98
227 | 42 | Unstable Unstable | Unstable Unstable | 70 ± 5 | CCCCCCCCCCCCCCCCCCN(CCCCCCCCCCCCCCCCCC)c1nc(NCCCN)nc(NCCC(=O)O)n1 [Lipid 12] | PDI [3, 11]: 0.51

Further lines, the compound ahead of its results:

Structure (SMILES) | IC50 [2] [µM] | Tm [4] [°C] | PDI [3, 8] | Size [3, 9] | Charge [3, 10] [mV] | also measured
CCCCCCCCCCCCCCCCCC(=O)OC[C@@H](COP(=O)([O-])OCC[N+](C)(C)C)OC(=O)CCCCCCCCCCCCCCCCC (stereo in doubt) [DSPC, 1,2-distearoyl-sn-glycero-3-phosphocholine, reference compound] | – | – | – | – | – | increase of anti-hAAT titers [1]: 100 fold
CCCCCCCCCCCCCC(=O)OC[C@H](COP(=O)([O-])OCC[N+](C)(C)C)OC(=O)CCCCCCCCCCCCC [DMPC, 1,2-Dimyristoyl-sn-glycero-3-phosphocholine, reference compound] | – | – | – | – | – | LD50 ([2]; LDH activity, BMDMs incubated 24 hours, text of Example 3): 969 µM; LD50 ([2]; LDH release, 24 hours (Table 2)): 969 µM; PDI ([3]; Table 2): 0.39 ± 0.01; Size [3, 7]: 277 ± 45 nm; Charge ([3]; zeta potential (Table 2)): −9 ± 0.3 mV
CCCCCCCC/C=C\CCCCCCCCOCC(C[N+](C)(C)C)OCCCCCCCC/C=C\CCCCCCCC (stereo not drawn) [DOTMA, 1,2-di-O-octadecenyl-3-trimethylammonium propane, reference compound] | – | – | – | – | – | PDI ([3]; Table 2): 0.43 ± 0.06; Size [3, 7]: 105 ± 2 nm; Charge ([3]; zeta potential (Table 2)): 70 ± 4 mV
CCCCCCCCCCCCCCCCCCN(CCCCCCCCCCCCCCCCCC)c1nc(NCCCN)nc(NCCCN)n1 [Lipid 4] | 180 | 33 | 0.28 ± 0.00 | 326 ± 1 nm | 63 ± 3 | pKa [5]: 5.59; IC50 [6]: 29 µM
CCCCCCCCCCCCCCCCCCN(CCCCCCCCCCCCCCCCCC)c1nc(NCCCN(C)C)nc(NCCCN(C)C)n1 [Lipid 10] | – | 28 | 0.28 ± 0.01 | 186 ± 1 nm | 47 ± 1 | IC50 ([2]; LDH release, 24 hours (Table 1), read-out: ID50 (the source's name)): 261 µM
